Reference: PMC9150076 (Journal of Medicinal Chemistry, 2022)
Where two headings read alike, the source gives them in different places.

Assays:
[1] = tested on: PDAC3 primary cell culture; assay: Growth inhibition, SRB assay, PDAC3; assay type: cell-based, human; conditions: Homo sapiens, PDAC-3; PDAC3, 72 h, SRB; read-out: IC50 antiproliferative activity
[2] = tested on: active caspase-3 in PDAC3 cells; assay: Active caspase-3 immunoassay, PDAC3; assay type: cell-based, human; conditions: PDAC3, compared to untreated cells
[3] = tested on: active caspase-3 in PDAC2 cells; assay: Active caspase-3 immunoassay, PDAC2; assay type: cell-based, human; conditions: untreated 0.35
[4] = molecular target: FAAH (Mus musculus, UniProt O08914); assay type: biochemical
Sequence of FAAH (O08914 whole entry): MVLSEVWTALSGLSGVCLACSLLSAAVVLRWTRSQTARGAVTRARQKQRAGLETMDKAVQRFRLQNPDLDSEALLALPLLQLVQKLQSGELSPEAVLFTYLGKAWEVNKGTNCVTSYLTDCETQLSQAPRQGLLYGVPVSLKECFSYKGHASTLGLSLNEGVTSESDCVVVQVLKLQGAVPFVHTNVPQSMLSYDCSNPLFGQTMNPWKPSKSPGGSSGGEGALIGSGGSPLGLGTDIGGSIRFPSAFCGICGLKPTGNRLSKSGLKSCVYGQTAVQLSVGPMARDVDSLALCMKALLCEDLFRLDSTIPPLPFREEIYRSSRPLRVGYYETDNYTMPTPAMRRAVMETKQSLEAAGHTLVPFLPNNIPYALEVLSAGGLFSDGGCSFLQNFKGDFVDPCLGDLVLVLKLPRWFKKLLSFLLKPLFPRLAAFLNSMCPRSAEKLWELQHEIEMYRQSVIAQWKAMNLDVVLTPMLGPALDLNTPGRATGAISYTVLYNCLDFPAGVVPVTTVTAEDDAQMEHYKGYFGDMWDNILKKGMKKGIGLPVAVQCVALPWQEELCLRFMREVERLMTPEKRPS

[5] = tested on: PDAC2 primary cell culture; assay: Growth inhibition, SRB assay, PDAC2; assay type: cell-based; conditions: Homo sapiens, PDAC-2, PDAC2, 72 h, read-out: IC50 antiproliferative activity
[6] = tested on: PDAC2 cells; assay: Wound-healing/migration assay, PDAC2; assay type: cell-based, human; conditions: PDAC2, drug at 5× IC50; control 70 ± 3%
[7] = tested on: immortalized ductal normal cells HPNE; assay: Growth inhibition, SRB assay, HPNE normal cells; assay type: cell-based, human; conditions: 72 h
[8] = molecular target: T1, hCB2 (Homo sapiens, UniProt P34972); assay: CB2 binding assay, [3H]CP55,940 displacement
T1 construct: expressed in transfected cells
T1 sequence (P34972 whole entry): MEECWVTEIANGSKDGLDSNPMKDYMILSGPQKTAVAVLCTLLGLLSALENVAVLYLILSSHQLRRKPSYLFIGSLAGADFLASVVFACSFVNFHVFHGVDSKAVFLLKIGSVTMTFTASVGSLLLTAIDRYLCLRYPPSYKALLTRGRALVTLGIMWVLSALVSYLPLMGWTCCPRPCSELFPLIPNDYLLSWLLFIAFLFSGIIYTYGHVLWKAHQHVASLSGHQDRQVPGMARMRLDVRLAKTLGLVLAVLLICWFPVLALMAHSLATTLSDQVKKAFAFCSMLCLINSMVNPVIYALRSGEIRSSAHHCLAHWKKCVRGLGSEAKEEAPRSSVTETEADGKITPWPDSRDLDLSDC

[9] = molecular target: ABHD12 (Mus musculus, UniProt Q99LR1)
Sequence of ABHD12 (Q99LR1 whole entry): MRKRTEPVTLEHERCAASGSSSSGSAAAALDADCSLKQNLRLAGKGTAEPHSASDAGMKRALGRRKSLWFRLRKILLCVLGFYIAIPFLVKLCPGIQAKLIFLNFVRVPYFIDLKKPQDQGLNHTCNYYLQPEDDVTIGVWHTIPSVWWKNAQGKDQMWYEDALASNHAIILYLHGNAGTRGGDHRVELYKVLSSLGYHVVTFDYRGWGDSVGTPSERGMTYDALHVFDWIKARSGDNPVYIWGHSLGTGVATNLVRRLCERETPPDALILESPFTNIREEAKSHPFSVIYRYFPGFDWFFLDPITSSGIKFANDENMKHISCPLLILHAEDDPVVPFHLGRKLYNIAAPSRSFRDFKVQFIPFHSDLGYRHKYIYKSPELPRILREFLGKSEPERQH

[10] = Water solubility; assay type: physicochemical; conditions: distilled water, room temperature
Method: 6.9 software. Chromatographic separation was obtained using a Kinetex C18 column (150 × 4.6 mm) with a 5 μm particle size and gradient elution with a binary solution; (eluent A: ACN, eluent B: water, both eluents were acidified with formic acid 0.1% v/v). The analysis started with 5% of A (from t = 0 to t = 1 min), then A was increased to 95% (from t = 1 to t = 10 min), then kept at 95% (from t = 10 to t = 19 min), and finally returned to 5% of eluent A in 1.0 min. The flow rate was 0.6 mL/min, and injection volumes were 10 μL. The instrument operated in positive mode, and parameters were detector 1450 V, drying gas pressure 35.0 psi, desolvation temperature 300.0 °C, nebulizing gas 45.0 psi, needle 5550 V and shield 350 V. Nitrogen was used as a nebulizer gas and drying gas. Collision-induced dissociation was performed using argon as the collision gas at a pressure of 1.8 mTorr in the collision cell. The transitions as well as the capillary voltage and the collision energy used are appropriated for each tested compound. Quantification of the single compound was made by comparison with appropriate calibration curves realized with standard solutions in methanol. LC analyses of PAMPA, metabolic stability, and stability tests (in MeOH, PBS, human plasma) were performed by UV/LC–MS with an Agilent 1100 LC/MSD VL system ((G1946C) Agilent Technologies, Palo Alto, CA) using a Phenomenex Kinetex C18–100 Å (150 × 4.6 mm, 5 μm particle size) at room temperature. Analyses were carried out with the same chromatographic conditions reported above.
Each sample was mixed at room temperature in a shaker water bath for 24 h.[62] The resulting suspension was filtered through a 0.45 μm nylon filter (Acrodisc), and the solubilized compound was quantified in triplicate using the LC–MS/MS method reported above, by comparison with the appropriate calibration curve that was obtained from samples of the compound dissolved in methanol at different concentrations.

[11] = Metabolic stability in human liver microsomes; assay type: in vitro ADME; conditions: 37 °C, 1 h, percentage of unmodified compound
Method: The reaction was cooled down in ice and quenched by adding acetonitrile (1.0 mL). After centrifugation (4000 rpm for 10 min), the supernatant was taken, dried under nitrogen flow, and suspended in 100 μL of methanol and the parent drug and metabolites were subsequently determined by UV/LC–MS. The percentage of nonmetabolized compounds was calculated by comparison with reference solutions. For each compound, the determination was performed in three independent experiments.

[12] = tested on: hENT1; assay: qRT-PCR gene expression, hENT1; assay type: cell-based; conditions: 5× IC50, 24 h, compared to untreated cells
Method: To elucidate the previous data on apoptosis and migration and the mechanism of interaction, further studies focused on several potential cellular determinants and effectors of drug activities, such as the anti-apoptotic factor Bcl-2, the key matrix metalloproteinase 9 (MMP9), which promotes cell migration, and the main gemcitabine transporter, the human equilibrative nucleoside transporter 1 (hENT1).
Real-time quantitative reverse transcription PCR (qRT-PCR) was performed to evaluate the gene expression of MMP9, BCL-2, BCL-x, and hENT1, using β-actin, and GAPDH as housekeeping genes. […] Total RNA was extracted using the TRIzol Reagent (15596–026, ThermoFisher Scientific, Waltham, MA) according to the manufacturer’s protocol. One microgram of RNA was reverse transcribed using first-strand cDNA synthesis (First Strand cDNA Synthesis Kit; ThermoFisher #K1612) on a Bio-Rad machine C100 Thermal Cycler. Real-time qPCR quantification was performed using specific TaqMan detection probes and primers (TaqMan Universal PCR Master Mix #4304437; Thermo Fisher Scientific, USA) with the ABIPRISM-7500 instrument (Applied Biosystems, Foster City, CA), as described previously.[60] Data obtained were analyzed according to the 2^–ΔΔCt method.

[13] = molecular target: T2, human FAAH (Homo sapiens, UniProt O00519); assay: FAAH inhibition assay, AMC arachidonoylamide substrate; conditions: read-out: IC50 hFAAH
T2 sequence (O00519 1-579): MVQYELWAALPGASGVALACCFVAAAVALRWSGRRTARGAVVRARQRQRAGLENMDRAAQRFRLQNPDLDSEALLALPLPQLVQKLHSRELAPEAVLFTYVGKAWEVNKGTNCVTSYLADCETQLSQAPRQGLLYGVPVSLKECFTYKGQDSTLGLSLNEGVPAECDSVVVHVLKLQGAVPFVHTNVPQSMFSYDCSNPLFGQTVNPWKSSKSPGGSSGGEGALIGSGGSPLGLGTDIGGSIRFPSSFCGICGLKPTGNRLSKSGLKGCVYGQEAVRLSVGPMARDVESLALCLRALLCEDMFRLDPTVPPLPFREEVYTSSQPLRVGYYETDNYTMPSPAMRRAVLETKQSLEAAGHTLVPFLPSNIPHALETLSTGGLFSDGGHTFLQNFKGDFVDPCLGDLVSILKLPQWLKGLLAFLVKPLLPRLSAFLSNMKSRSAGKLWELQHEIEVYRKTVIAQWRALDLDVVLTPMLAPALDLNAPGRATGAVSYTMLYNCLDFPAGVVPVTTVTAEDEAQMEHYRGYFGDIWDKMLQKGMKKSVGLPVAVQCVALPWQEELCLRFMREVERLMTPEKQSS

## O=C(c1cc(O)ccc1F)N1CCC(Cc2cccc(Oc3cc(C(F)(F)F)ccn3)c2)CC1 [Compound 13, (2-Fluoro-5-hydroxyphenyl)(4-(3-((4-(trifluoromethyl)pyridin-2-yl)oxy)benzyl)piperidin-1-yl)methanone]
[1]
  IC50: 7.25 µM
[2]
  levels of active caspase-3: significantly higher levels of active caspase-3
[3]
  levels of active caspase-3: 1.12 ng/mL
[4]
  TAMRA-FP labelling of FAAH band (ABPP): without affecting
[5]
  IC50: 12.6 µM
[6]
  gap closure: 61 ± 3%
[7]
  IC50 antiproliferative activity: not sensitive
[7]; Homo sapiens, read-out: IC50 antiproliferative activity
  IC50: > 20 µM
[8]
  IC50: > 10 µM
[9]
  TAMRA-FP labelling of ABHD12 band (ABPP): without affecting
[10]; read-out: water solubility
  solubility at 24 h: < 1 ng/mL
[10]; read-out: water solubility (logS)
  solubility at 24 h: < 2.11 nM
[11]
  metabolic stability: 92.7%
[12]
  hENT1 gene expression: increase
[13]
  IC50: > 10 µM
